Like-named read-outs stand apart in the source and are kept apart here.
Columns and labels:
[1] = test system: barnyardgrass (Echinochloa crus-galli); experiment: Test B flooded paddy test; type: in vivo; conditions: Echinochloa crus-galli, 250 g ai/ha, Flood
In short: (§1)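 Visual ratings (0 none to 100 complete control) are relative to untreated plants, taken 13–15 d after treatment in a greenhouse. Test material went straight into floodwater standing 3 cm above the soil, kept constant, on plants at the 2-leaf stage.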

[2] = test system: ducksalad (Heteranthera limosa); experiment: Test B flooded paddy test; type: in vivo; conditions: Heteranthera limosa, 250 g ai/ha, Flood
In short: as §1

[3] = test system: rice (Oryra sativa); experiment: Test B flooded paddy test; type: in vivo; conditions: Oryza sativa, 250 g ai/ha, Flood
In short: as §1

[4] = test system: sedge, umbrella (small-flower umbrella sedge, Cyperus difformis); experiment: Test B flooded paddy test; type: in vivo; conditions: Cyperus difformis, 250 g ai/ha, Flood
In short: as §1

For O=C1NC[C@H](c2nccc(C(F)(F)F)n2)[C@H]1C(=O)Nc1ccccc1F [Compound 1304], the pest or weed control at 250 g/ha ([1]; 0 to 100 scale where 0 is no effect and 100 is complete control, read-out: Barnyardgrass plant response rating) was 0%, the pest or weed control at 250 g/ha ([2]; 0 to 100 scale where 0 is no effect and 100 is complete control, read-out: Ducksalad plant response rating) was 0% and the pest or weed control at 250 g/ha ([3]; 0 to 100 scale where 0 is no effect and 100 is complete control, read-out: Rice plant response rating) was 0%. The pest or weed control at 250 g/ha ([4]; 0 to 100 scale where 0 is no effect and 100 is complete control, read-out: Sedge, Umbrella plant response rating) was 0% and the melting point was 166 to 170 °C.
For O=C1NC[C@H](c2cncs2)[C@H]1C(=O)Nc1cccc(F)c1F [Compound 1336], the pest or weed control at 250 g/ha ([1]; 360 h, visually evaluated after 13 to 15 d, read-out: Plant response rating, Barnyardgrass (0 to 100 scale where 0 is no effect and 100 is complete control)) was 0%, the pest or weed control at 250 g/ha ([2]; 360 h, visually evaluated after 13 to 15 d, read-out: Plant response rating, Ducksalad (0 to 100 scale where 0 is no effect and 100 is complete control)) was 40% and the pest or weed control at 250 g/ha ([3]; 360 h, visually evaluated after 13 to 15 d, read-out: Plant response rating, Rice (0 to 100 scale where 0 is no effect and 100 is complete control)) was 0%. The pest or weed control at 250 g/ha ([4]; 360 h, visually evaluated after 13 to 15 d, read-out: Plant response rating, Sedge, Umbrella (0 to 100 scale where 0 is no effect and 100 is complete control)) was 0% and the melting point was 111 to 142 °C.

Reference: patent publication US12077503B2, “Substituted cyclic amides and their use as herbicides” (FMC CORPORATION, priority 2015, dated 2024)
